Like-named read-outs stand apart in the source and are kept apart here.
Legend:
Assay in all cases: MIC on nutrient agar and synergistic index (Kull)
Type in all cases: cell-based
Chaetomium globosum = test system: Chaetomium globosum
From the text: (§1) The term synergism is used when the action of a combination of antimicrobial substances is being evaluated.
(§2) The synergism found for the mixtures according to the invention can be determined via the following mathematical formula (cf. F. C. Kull, P. C. Elisman, H. D. Sylwestrowicz and P. K. Mayer, Appl. Microbiol. 9, 538 (1961):
(§3) Qa=amount of component A in the active substance mixture which achieves the desired effect, i. e. no microbial growth,
(§4) QA=amount of component A which, when used alone, suppresses the growth of the microorganisms,
(§5) Qb=amount of component B in the active substance mixture which suppresses the growth of the microorganisms,
(§6) QB=amount of component B which, when used alone, suppresses the growth of the microorganisms
(§7) If the sum of the ratios for a mixture Qa/QA+Qb/QB=1, additivity is indicated; if it is <1, synergism has occurred; a value of >1 is indicative of antagonism.
(§8) To determine the antimicrobial efficacy and synergy of active ingredients mixtures, the Minimum Inhibitory Concentration (MIC) of the active substances and their respective combinations were determined. The Minimum Inhibitory Concentration of a given antimicrobial compound or mixture is the lowest concentration expressed in […] that under defined in vitro conditions inhibits the growth of a given micro-organism (for example bacteria, mould fungi, yeasts). The growth of the microorganisms is observed on petri dishes containing a defined nutrient agar.
(§9) The antimicrobial efficacy and synergy of combinations based on TBZ, PYM and FDL were determined.

Aureobasidium pullulans = test system: Aureobasidium pullulans
From the text: as §1, §2, §3, §4, §5, §6, §7, §8, §9

Stachybotris chartarum = test system: Stachybotris chartarum
From the text: as §1, §2, §3, §4, §5, §6, §7, §8, §9

Alternaria alternata = test system: Alternaria alternata
From the text: as §1, §2, §3, §4, §5, §6, §7, §8, §9

Paecilomyces variotii = test system: Paecilomyces variotii
From the text: as §1, §2, §3, §4, §5, §6, §7, §8, §9

[1] = Stachybotris chartarum, nutrient agar, read-out: MIC

Structure (SMILES) | MIC (Chaetomium globosum) | MIC (Aureobasidium pullulans) | MIC (Stachybotris chartarum) | MIC (Alternaria alternata) | MIC (Paecilomyces variotii) | MIC (Chaetomium globosum; nutrient agar, read-out: MIC) | MIC (Aureobasidium pullulans; nutrient agar, read-out: MIC) | MIC (Stachybotris chartarum; [1]) | MIC (Alternaria alternata; nutrient agar, read-out: MIC) | MIC (Paecilomyces variotii; nutrient agar, read-out: MIC)
N#Cc1c[nH]cc1-c1cccc2c1OC(F)(F)O2 [FDL, fludioxonil] | 1500 mg/L | 1500 mg/L | 5 mg/L | 5 mg/L | 175 mg/L |  |  |  |  | 
Cc1cc(C)nc(Nc2ccccc2)n1 [PYM, pyrimethanil] |  |  |  |  |  | 250 mg/L | 175 mg/L | 100 mg/L | 25 mg/L | 90 mg/L
c1ccc2[nH]c(-c3cscn3)nc2c1 [TBZ, thiabendazole] |  |  |  |  |  | 5 mg/L | 5 mg/L | 50 mg/L | 250 mg/L | 5 mg/L

Reference: patent publication US12369584B2, “Fungicide mixtures” (LANXESS Deutschland GmbH, priority 2019, dated 2025)
